Tests used:
[1] = tested on: NCI-H460; test: NCI 60 panel: NCI-H460 (Non-Small Cell Lung Cancer); format: cell-based
Description: (§5) TGI means the drug concentration resulting in total growth inhibition or “cytostasis.” LC50 is the concentration of drug resulting in a 50% reduction in the measured cytosolic ATP at the end of the drug treatment as compared to that at the beginning, indicating a net loss of cells following treatment (cytotoxicity).

[2] = tested on: U251MG; test: Complementary DBM in vitro profiling: U251MG (CNS Cancer); format: cell-based
Description: (§1) The compounds described herein are effective for inhibiting cellular proliferation in hyperproliferative cell types. To study the effects of these compounds, an assay was developed to differentiate the effects of the compounds on proliferating versus confluent cells. The assay design generates a proliferating density 24 hours after seeding and provides a 3-day active cell growth/doubling window in which to gauge the anti-proliferative effect of the compounds described herein. […] In this 3-day growth window, cell number increases with daily doublings across the 72-hour period (see FIG. 1).
(§2) In each assay design, compounds were added at the 24-hour timepoint after cell seeding. The effect of the compounds, relative to vehicle control and to VelCade (a proteasome inhibitor approved in the U.S. for treating relapsed multiple myeloma and mantle cell lymphoma) as a positive control, was assessed across the 3-day growth window for proliferating cells and on an already near confluent culture of cells for the same time period. Normal cells were handled in the same manner, with some adjustment of seeding density needed in select cases. […]
(§3) Cell number at the end of the assay was determined using the CELLTITER-GLO Luminescent Cell Viability Assay (Promega; Madison, Wis.). The CELLTITER-GLO Luminescent Cell Viability Assay is a homogeneous method of determining the number of viable cells in culture based on quantitation of the ATP present, an indicator of metabolically active cells. IC50 values were calculated. […]
(§4) For a typical screening experiment to identify the compounds, cells were seeded into 96- or 384-well microtiter plates at plating densities pre-determined for each cell line to ensure drug exposure occurs during the proliferative phase well before confluency is reached. […] Values were calculated for each of these three parameters if the level of activity was reached; however, if the effect was not reached or was exceeded, the value for that parameter was expressed as greater or less than the maximum or minimum concentration tested.

[3] = tested on: tubulin; test: Biochemical tubulin polymerization; details: FIG. 11C
Description: Following 24 hours of treatment with Compound DBM 228, Compound DBM 318, and Compound DBM 328, caspase 3/7 activation in U251MG cells was determined. The detection of caspase 3/7 activation in U251MG cells indicates activation of apoptosis. Tubulin polymerization was determined for Compounds DBM 227, DBM 228, DBM 308, DBM 318, DBM 701, DBM 707, DBM 715, paclitaxel, vincristine, and negative control Compound DBM 328. […] Paclitaxel served as polymerization enhancer control and vincristine served as polymerization inhibitor control.

[4] = tested on: SNB-19; test: NCI 60 panel: SNB-19 (CNS Cancer); format: cell-based
Description: as §5

[5] = tested on: U266; test: Complementary DBM in vitro profiling: U266 (Hematologic Cancer); format: cell-based
Description: as §1, §2, §3, §4

[6] = tested on: NCI-H226; test: NCI 60 panel: NCI-H226 (Non-Small Cell Lung Cancer); format: cell-based
Description: as §5

[7] = tested on: SK-MEL-5; test: NCI 60 panel: SK-MEL-5 (Melanoma); format: cell-based
Description: as §5

[8] = tested on: SF-268; test: NCI 60 panel: SF-268 (CNS Cancer); format: cell-based
Description: as §5

[9] = tested on: K-562; test: NCI 60 panel: K-562 (Leukemia); format: cell-based
Description: as §5

[10] = tested on: HS 578T; test: NCI 60 panel: HS 578T (Breast Cancer); format: cell-based
Description: as §5

[11] = tested on: U251; test: NCI 60 panel: U251 (CNS Cancer); format: cell-based
Description: as §5

[12] = tested on: WT cells (cloned non-cystic kidney tissue cells); test: Concentration-response in primary cultures cloned from non-cystic kidney tissue; format: cell-based; details: 72 hour treatment
Description: The concentration-response effects of Compound DBM 228, Compound DBM 308, Compound DBM 101, and Compound DBM 328 were determined in primary cultures derived as ‘clones’ from cystic versus non-cystic kidney tissue. CRC graphs, IC50 values, and the percent maximum inhibition versus lowest doses without effect were calculated with GraphPad Prism software. […] There was also a marked separation in effect between hyperproliferative PKD cells (FIG. 5A and Table 3) and WT cells (FIG. 5B and Table 4).

[13] = tested on: MCF7; test: NCI 60 panel: MCF7 (Breast Cancer); format: cell-based
Description: as §5

[14] = tested on: HOP-92; test: NCI 60 panel: HOP-92 (Non-Small Cell Lung Cancer); format: cell-based
Description: as §5

[15] = tested on: NCI-H522; test: NCI 60 panel: NCI-H522 (Non-Small Cell Lung Cancer); format: cell-based
Description: as §5

[16] = tested on: UACC-62; test: NCI 60 panel: UACC-62 (Melanoma); format: cell-based
Description: as §5

[17] = tested on: ACHN; test: NCI 60 panel: ACHN (Renal Cancer); format: cell-based
Description: as §5

[18] = tested on: MALME-3M; test: NCI 60 panel: MALME-3M (Melanoma); format: cell-based
Description: as §5

[19] = read-out: LC50 (the source's name)

## COc1ccccc1Nc1nc(-c2cc3cccc(N)c3oc2=O)cs1 [Compound DBM 228]
[1]
  GI50: 0.0912 µM
  TGI: 14.2 µM
[1]; [19]
  CC50: > 100 µM
[2]
  GI50: 0.197 µM
  TGI: >30 µM
[2]; [19]
  CC50: > 30 µM
[3]
  effect on biochemical tubulin polymerization, in words: modestly inhibited
[4]
  GI50: 0.182 µM
  TGI: 35 µM
[4]; [19]
  CC50: > 100 µM
[5]
  GI50: 0.0796 µM
  TGI: 0.116 µM
[5]; [19]
  CC50: 0.161 µM
[6]
  GI50: 11.2 µM
  TGI: 37.2 µM
[6]; [19]
  CC50: > 100 µM
[7]
  GI50: 0.0768 µM
  TGI: 2.3 µM
[7]; [19]
  CC50: 26.8 µM
[8]
  GI50: 0.77 µM
  TGI: 55.3 µM
[8]; [19]
  CC50: > 100 µM
[9]
  GI50: 0.043 µM
  TGI: 16.1 µM
[9]; [19]
  CC50: > 100 µM
[10]
  GI50: 13.7 µM
  TGI: >100 µM
[10]; [19]
  CC50: > 100 µM
[11]
  GI50: 0.0468 µM
  TGI: 10.6 µM
[11]; [19]
  CC50: 35.7 µM
[12]
  IC50: > 100 µM
  Max inhibition: 49%
[13]
  GI50: 0.0545 µM
  TGI: >100 µM
[13]; [19]
  CC50: > 100 µM
[14]
  GI50: 1.45 µM
  TGI: 24.7 µM
[14]; [19]
  CC50: > 100 µM
[15]
  GI50: 0.0247 µM
  TGI: 0.094 µM
[15]; [19]
  CC50: > 100 µM
[16]
  GI50: 0.0511 µM
  LC50 (lethal concentration, 50% net cell kill): > 100 µM
  TGI: 28.2 µM
[17]
  GI50: 1.49 µM
  TGI: 15.9 µM
[17]; [19]
  CC50: 42.7 µM
[18]
  GI50: 16.8 µM
  TGI: 49.6 µM
[18]; [19]
  CC50: > 100 µM
